Measured values reported in patent US20260053811A1, “METHODS OF TREATING HYPERTENSION IN OBESE SUBJECTS” (Mineralys Therapeutics, Inc., priority 2022, published 2026).

Tested on: hypertensive subjects
Experiment: Seated automated office blood pressure (AOBP) in randomized, placebo-controlled, dose-ranging study
Type: in vivo, human
Details: Part 1, 100 mg QD
Procedure: A randomized, double-blinded, placebo-controlled, dose-ranging, multicenter study was conducted to evaluate the effect of orally administered Compound A HBr on blood pressure for the treatment of hypertension in male and female subjects ≥18 years of age.
The study consists of two parts. For enrollment into Part 1 of the study, a subject's value of plasma renin activity (PRA) must be ≤1 ng/mL/h based on morning measurement. If the value of PRA >1 ng/mL/h based on morning measurement, then subjects may be eligible to enter Part 2 of the study.
For Part 1, 163 enrolled subjects ≥18 years of age were randomized into 6 equal treatment groups (1:1:1:1:1:1) to 12.5 mg BID, 25 mg BID, 12.5 mg QD, 50 mg QD, 100 mg QD, or placebo. After a review of interim clinical data, the 2 lowest dose levels (12.5 mg QD and 12.5 mg BID) were stopped for future randomization due to a lack of consistent meaningful reduction of blood pressure, but the patients randomized to that point remained in the study through completion. Thus, after the review of interim clinical data, subjects were randomized into 4 equal treatment groups (1:1:1:1) to 25 mg BID, 50 mg QD, 100 mg QD, or placebo.
For Part 2, 36 enrolled subjects ≥18 years of age were randomized (5:1) to either 100 mg QD Compound A HBr or placebo such that the Compound A HBr treatment group consisted of approximately 30 subjects and the placebo treatment group will consist of approximately 6 subjects.
Subjects orally administered the assigned study drug (Compound A HBr or placebo) according to the assigned dosing regimen for 8 weeks beginning on Study Day 1. All subjects in Part 1 (regardless of dosing group) received BID dosing to preserve the integrity of the blind; active drug is administered as the morning dose for all QD dose groups. Subjects returned to the research facility or were seen by the clinical investigator or approved home health care professional at the end of Study Weeks 1, 2, 3, 4, 5, 6, 7, and 8 (±2 days) for protocol-defined efficacy and safety assessments and procedures, assessment of adverse events (AEs), and confirmation of compliance with study drug usage. Subjects also completed a telephone visit and blood pressure (BP) check at home approximately 3 days post last dose of study drug. Subjects attended up to 14 full clinic visits, including a pre-Screening visit, a Screening/start of Placebo Run-in visit, a second visit during Placebo Run-in, a clinic visit to initiate the ABPM procedure, a Randomization visit, 8 weekly visits during double-blind treatment, and an end-of-study visit scheduled 4 weeks after the last study treatment for final efficacy and safety assessments.
An automated oscillometric sphygmomanometer device was used to measure the subjects' systolic and diastolic blood pressure in office after approximately 5 minutes of rest in the seated position.
The primary endpoint is the change in office-measured (mean of last 2 of 5 unattended measurements using an automated oscillometric sphygmomanometer device after approximately 5 minutes of rest in the seated position) systolic blood pressure (SBP) from baseline to the end of Study Week 8.
Secondary endpoints of this study were: • (a) Change in 24-hour ambulatory blood pressure monitoring (ABPM) parameters (systolic and diastolic) from baseline to the end of Study Week 7. • (b) Change in office-measured SBP from baseline to the end of Study Weeks 1, 2, 3, 4, 5, 6, and 7. • (c) Change in office-measured diastolic blood pressure (DBP) from baseline to the end of Study Weeks 1, 2, 3, 4, 5, 6, 7, and 8. • (d) Proportion of subjects who achieve office-measured BP of ≤130/80 mm Hg by the end of Study Week 8.

[1] = Systolic Blood Pressure Tertile at Baseline High
[2] = Systolic Blood Pressure Tertile at Baseline Low
[3] = Systolic Blood Pressure Tertile at Baseline Middle
[4] = Thiazide Diuretic Use at Baseline No

## CC(=O)N[C@H]1CC[C@H](NC(=O)CN2CCN(c3nncc(-c4ccc(C)cc4)n3)CC2)CC1 [Compound A HBr]
Age ≥80 yr
  Mean (SD) Automated Office-Measured Diastolic Blood Pressure at Wk 8: 65.75 (11.73) mmHg
  Mean (SD) Automated Office-Measured Systolic Blood Pressure at Wk 8: 125.00 (8.04) mmHg
  Mean (SD) Change from Baseline at Week 8 in Automated Office-Measured Diastolic Blood Pressure: −4.75 (8.03) mmHg
  Mean (SD) Change from Baseline at Week 8 in Automated Office-Measured Systolic Blood Pressure: −18.13 (12.34) mmHg
BMI 25−30 kg/m^2
  Mean (SD) Automated Office-Measured Diastolic Blood Pressure at Wk 8: 72.67 (9.33) mmHg
  Mean (SD) Change from Baseline at Week 8 in Automated Office-Measured Diastolic Blood Pressure: −6.50 (7.61) mmHg
BMI <25 kg/m^2
  Mean (SD) Automated Office-Measured Diastolic Blood Pressure at Wk 8: 78.33 (19.14) mmHg
  Mean (SD) Change from Baseline at Week 8 in Automated Office-Measured Diastolic Blood Pressure: −0.67 (7.01) mmHg
BMI >30 kg/m^2
  Mean (SD) Automated Office-Measured Diastolic Blood Pressure at Wk 8: 71.42 (7.10) mmHg
  Mean (SD) Change from Baseline at Week 8 in Automated Office-Measured Diastolic Blood Pressure: −6.88 (7.81) mmHg
BMI at baseline 25-30 kg/m^2
  Mean (SD) Automated Office-Measured Systolic Blood Pressure at Wk 8: 129.67 (10.05) mmHg
  Mean (SD) Change from Baseline at Week 8 in Automated Office-Measured Systolic Blood Pressure: −11.17 (11.94) mmHg
BMI at baseline <25 kg/m^2
  Mean (SD) Automated Office-Measured Systolic Blood Pressure at Wk 8: 146.00 (18.33) mmHg
  Mean (SD) Change from Baseline at Week 8 in Automated Office-Measured Systolic Blood Pressure: −7.83 (17.47) mmHg
BMI at baseline >30 kg/m^2
  Mean (SD) Automated Office-Measured Systolic Blood Pressure at Wk 8: 129.00 (15.28) mmHg
  Mean (SD) Change from Baseline at Week 8 in Automated Office-Measured Systolic Blood Pressure: −18.50 (13.40) mmHg
Race Black or AA
  Mean (SD) Automated Office-Measured Diastolic Blood Pressure at Wk 8: 71.92 (10.83) mmHg
  Mean (SD) Automated Office-Measured Systolic Blood Pressure at Wk 8: 129.92 (16.18) mmHg
  Mean (SD) Change from Baseline at Week 8 in Automated Office-Measured Diastolic Blood Pressure: −7.38 (7.65) mmHg
  Mean (SD) Change from Baseline at Week 8 in Automated Office-Measured Systolic Blood Pressure: −17.13 (11.55) mmHg
Race Other
  Mean (SD) Automated Office-Measured Diastolic Blood Pressure at Wk 8: 74.00 (8.26) mmHg
  Mean (SD) Automated Office-Measured Systolic Blood Pressure at Wk 8: 132.54 (12.47) mmHg
  Mean (SD) Change from Baseline at Week 8 in Automated Office-Measured Diastolic Blood Pressure: −3.69 (7.91) mmHg
  Mean (SD) Change from Baseline at Week 8 in Automated Office-Measured Systolic Blood Pressure: −11.27 (14.54) mmHg
Seated SBP Tertile High
  Mean (SD) Automated Office-Measured Diastolic Blood Pressure at Wk 8: 72.11 (11.78) mmHg
  Mean (SD) Change from Baseline at Week 8 in Automated Office-Measured Diastolic Blood Pressure: −8.78 (8.56) mmHg
Seated SBP Tertile Low
  Mean (SD) Automated Office-Measured Diastolic Blood Pressure at Wk 8: 73.86 (11.01) mmHg
  Mean (SD) Change from Baseline at Week 8 in Automated Office-Measured Diastolic Blood Pressure: −0.29 (6.44) mmHg
Seated SBP Tertile Middle
  Mean (SD) Automated Office-Measured Diastolic Blood Pressure at Wk 8: 73.22 (5.97) mmHg
  Mean (SD) Change from Baseline at Week 8 in Automated Office-Measured Diastolic Blood Pressure: 6.17 (6.64) mmHg
Sex Female
  Mean (SD) Automated Office-Measured Diastolic Blood Pressure at Wk 8: 70.87 (10.51) mmHg
  Mean (SD) Automated Office-Measured Systolic Blood Pressure at Wk 8: 132.40 (15.95) mmHg
  Mean (SD) Change from Baseline at Week 8 in Automated Office-Measured Diastolic Blood Pressure: −3.67 (7.27) mmHg
  Mean (SD) Change from Baseline at Week 8 in Automated Office-Measured Systolic Blood Pressure: −13.17 (12.05) mmHg
Sex Male
  Mean (SD) Automated Office-Measured Diastolic Blood Pressure at Wk 8: 76.20 (6.81) mmHg
  Mean (SD) Automated Office-Measured Systolic Blood Pressure at Wk 8: 129.60 (11.45) mmHg
  Mean (SD) Change from Baseline at Week 8 in Automated Office-Measured Diastolic Blood Pressure: −8.15 (8.28) mmHg
  Mean (SD) Change from Baseline at Week 8 in Automated Office-Measured Systolic Blood Pressure: −15.45 (15.48) mmHg
[1]
  Mean (SD) Automated Office-Measured Systolic Blood Pressure at Wk 8: 139.11 (15.36) mmHg
  Mean (SD) Change from Baseline at Week 8 in Automated Office-Measured Systolic Blood Pressure: −19.06 (12.91) mmHg
[2]
  Mean (SD) Automated Office-Measured Systolic Blood Pressure at Wk 8: 129.86 (9.26) mmHg
  Mean (SD) Change from Baseline at Week 8 in Automated Office-Measured Systolic Blood Pressure: −4.71 (8.58) mmHg
[3]
  Mean (SD) Automated Office-Measured Systolic Blood Pressure at Wk 8: 124.56 (13.30) mmHg
  Mean (SD) Change from Baseline at Week 8 in Automated Office-Measured Systolic Blood Pressure: −16.39 (13.97) mmHg
[4]
  Automated Office-Measured Diastolic Blood Pressure, Week 8, Mean (SD): 72.40 (10.54) mmHg
  Mean (SD) Automated Office-Measured Systolic Blood Pressure at Wk 8: 135.80 (9.10) mmHg
